Measurements from ChEMBL document CHEMBL1146013, “Amino substituted analogs of 1-phenyl-3-phenylimino-2-indolones with potent galanin Gal3 receptor binding affinity and improved solubility” (Bioorg Med Chem Lett, 2006).
≈ marks a conversion by molar mass, not a printed value.

Key:
Galanin receptor type 3 = biological target: T1, Galanin receptor type 3 (Homo sapiens, UniProt O60755); test: Displacement of [125I]galanin from human galanin Gal3 receptor
T1 sequence (O60755 whole entry): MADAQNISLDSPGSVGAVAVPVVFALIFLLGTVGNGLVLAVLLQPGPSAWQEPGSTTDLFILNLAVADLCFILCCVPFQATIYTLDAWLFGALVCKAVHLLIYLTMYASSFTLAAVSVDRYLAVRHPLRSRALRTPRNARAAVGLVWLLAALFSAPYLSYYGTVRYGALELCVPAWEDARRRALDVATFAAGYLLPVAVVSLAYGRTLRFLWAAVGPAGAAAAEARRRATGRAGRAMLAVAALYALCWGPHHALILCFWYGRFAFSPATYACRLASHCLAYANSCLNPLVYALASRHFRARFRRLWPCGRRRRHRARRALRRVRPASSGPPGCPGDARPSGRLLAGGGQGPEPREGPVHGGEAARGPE

[1] = biological target: T2, Alpha-1A adrenergic receptor (Homo sapiens, UniProt P35348); test: Binding affinity to human adrenergic alpha-1A receptor
T2 sequence (P35348 whole entry): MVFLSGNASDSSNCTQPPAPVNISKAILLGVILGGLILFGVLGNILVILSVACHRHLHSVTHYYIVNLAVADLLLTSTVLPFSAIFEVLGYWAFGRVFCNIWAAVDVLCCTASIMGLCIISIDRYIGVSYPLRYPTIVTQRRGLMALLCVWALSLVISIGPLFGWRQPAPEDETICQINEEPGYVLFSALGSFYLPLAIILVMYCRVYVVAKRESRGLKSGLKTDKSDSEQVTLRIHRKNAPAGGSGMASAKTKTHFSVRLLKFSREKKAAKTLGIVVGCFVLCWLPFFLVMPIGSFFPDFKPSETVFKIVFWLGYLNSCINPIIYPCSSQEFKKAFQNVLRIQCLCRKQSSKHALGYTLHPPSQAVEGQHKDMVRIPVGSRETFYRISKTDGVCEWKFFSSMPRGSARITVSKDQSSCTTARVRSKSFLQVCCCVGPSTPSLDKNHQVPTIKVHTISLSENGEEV

D(1B) dopamine receptor = D(1B) dopamine receptor (Homo sapiens, UniProt P21918); test: Binding affinity to human dopamine D5 receptor
D(1B) dopamine receptor, sequence (P21918 whole entry): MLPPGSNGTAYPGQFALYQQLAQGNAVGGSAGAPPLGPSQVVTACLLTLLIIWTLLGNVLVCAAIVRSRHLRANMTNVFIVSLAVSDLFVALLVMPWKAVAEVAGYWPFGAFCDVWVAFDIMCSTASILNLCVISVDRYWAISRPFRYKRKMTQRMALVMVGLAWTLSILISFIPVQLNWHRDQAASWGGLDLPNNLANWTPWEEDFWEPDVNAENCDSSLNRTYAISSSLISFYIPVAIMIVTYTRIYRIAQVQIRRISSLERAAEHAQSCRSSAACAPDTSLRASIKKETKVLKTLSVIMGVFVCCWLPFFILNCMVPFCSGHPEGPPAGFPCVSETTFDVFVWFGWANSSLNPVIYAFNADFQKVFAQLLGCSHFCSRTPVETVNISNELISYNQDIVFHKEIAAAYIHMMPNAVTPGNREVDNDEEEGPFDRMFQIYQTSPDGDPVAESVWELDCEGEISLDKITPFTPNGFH

[2] = Aqueous solubility at pH 7.4; type: physicochemical

CN(C)CCOc1cccc(N2C(=O)/C(=N/c3cccc(C(F)(F)F)c3)c3ccccc32)c1 gave a Ki (Galanin receptor type 3) of 26 nM.
With O=C1/C(=N/c2cccc(C(F)(F)F)c2)c2ccccc2N1c1cccc(OCCN2CCCC2)c1 the Ki (Galanin receptor type 3) was 5 nM, the Ki [1] was 78 nM and the Ki (D(1B) dopamine receptor) was 939 nM. It also gave a solubility [2] of 48 µg/mL (≈ 100 µM).
In the case of CCN(CC)C[C@@H](O)COc1cccc(N2C(=O)/C(=N/c3cccc(C(F)(F)F)c3)c3ccccc32)c1, the Ki (Galanin receptor type 3) is reported as 290 nM.
Work on CCN(CC)CCCCOc1ccc(N2C(=O)/C(=N/c3cccc(C(F)(F)F)c3)c3ccccc32)cc1 yielded a Ki (Galanin receptor type 3) of 70 nM.
With CCN(CC)CCCCOc1cccc(N2C(=O)/C(=N/c3cccc(C(F)(F)F)c3)c3ccccc32)c1 the Ki (Galanin receptor type 3) was 45 nM and the solubility [2] was 5 µg/mL (≈ 9.81 µM).
CCN(CC)CCOc1ccc(N2C(=O)/C(=N/c3cccc(C(F)(F)F)c3)c3ccccc32)cc1 gave a Ki (Galanin receptor type 3) of 78 nM.
Compound O=C1/C(=N/c2cccc(C(F)(F)F)c2)c2ccccc2N1c1cccc(OCCCN2CCCC2)c1 has a Ki (Galanin receptor type 3) of 49 nM.
Work on CCN(CC)COc1cccc(N2C(=O)/C(=N/c3cccc(C(F)(F)F)c3)c3ccccc32)c1 yielded a Ki (Galanin receptor type 3) of 38 nM and a solubility [2] of 48 µg/mL (≈ 103 µM).
Work on CCN(CC)CCCOc1cccc(N2C(=O)/C(=N/c3cccc(C(F)(F)F)c3)c3ccccc32)c1 yielded a Ki (Galanin receptor type 3) of 21 nM, a Ki (D(1B) dopamine receptor) of 411 nM and a solubility [2] of 44 µg/mL (≈ 88.8 µM).
Compound CCN(CC)CCOc1cccc(N2C(=O)/C(=N/c3cccc(C(F)(F)F)c3)c3ccccc32)c1 has a Ki (Galanin receptor type 3) of 87 nM.
In the case of O=C1/C(=N/c2cccc(C(F)(F)F)c2)c2ccccc2N1c1ccccc1, the Ki (Galanin receptor type 3) is reported as 17 nM and the solubility [2] is reported as under 1 µg/mL.
Compound O=C1/C(=N/c2cccc(C(F)(F)F)c2)c2ccccc2N1c1ccccc1OCCN1CCCC1 has a Ki (Galanin receptor type 3) of 790 nM.
CCN(CC)C[C@H](O)COc1cccc(N2C(=O)/C(=N/c3cccc(C(F)(F)F)c3)c3ccccc32)c1 showed a Ki (Galanin receptor type 3) of 27 nM and a solubility [2] of 606 µg/mL (≈ 1180 µM).
Compound CCN(CC)CC(O)COc1cccc(N2C(=O)/C(=N/c3cccc(C(F)(F)F)c3)c3ccccc32)c1 (racemic) has a Ki (Galanin receptor type 3) of 15 nM.
With CCN(CC)CCCOc1ccc(N2C(=O)/C(=N/c3cccc(C(F)(F)F)c3)c3ccccc32)cc1 the Ki (Galanin receptor type 3) was 34 nM and the solubility [2] was 35 µg/mL (≈ 70.6 µM).
Compound O=C1/C(=N/c2cccc(C(F)(F)F)c2)c2ccccc2N1c1cccc(OCCN2CCCCC2)c1 has a Ki (Galanin receptor type 3) of 8 nM and a solubility [2] of 7 µg/mL (≈ 14.2 µM).
Compound CN(C)CCCOc1cccc(N2C(=O)/C(=N/c3cccc(C(F)(F)F)c3)c3ccccc32)c1 has a Ki (Galanin receptor type 3) of 29 nM.
In the case of CN(C)CCOc1ccc(N2C(=O)/C(=N/c3cccc(C(F)(F)F)c3)c3ccccc32)cc1, the Ki (Galanin receptor type 3) is reported as 89 nM.
For CCN(CC)CCOc1ccccc1N1C(=O)/C(=N/c2cccc(C(F)(F)F)c2)c2ccccc21, the Ki (Galanin receptor type 3) was 1000 nM.
